Common to all, as to assay: NCI anticancer screen, dose series, 48 h
For test [1], the system named is NCI-H522 lung.
Test [2] concerns M14 melanoma.
The test system of test [3] is HT29 colon.
Test [4] has as its system OVCAR-8 ovarian.
Test [5] concerns U251 CNS.
Test [6] deals with NCI-H23 lung.
For test [7], the system named is RPMI-8226 leukemia.
The subject of test [8] is SK-MEL-2 melanoma.
Test [9] concerns HOP-62 NSCLC.
For test [10], the system named is A498 renal.

Where “and” joins values, the source holds several entries; their conditions need not be identical. Equal values may be shown once.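 Method: 48-hour compound exposure of cells in 96-well plates, five concentrations, linear interpolation of endpoints. At the GI50, growth is halved. The concentration for full growth arrest is given as TGI.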 Where only a bound is given, the exact number is not on record here.

Turning to `COc1cc2c(cc1OCCCCCOc1cc(-c3ccc(F)cc3)nc(C)n1)N=C[C@@H]1CCCN1C2=O`, the GI50 in test [1] was greater than 20.5 µM; in [2] it was greater than 45.5 µM; in test [3] it was greater than 45.1 µM; in test [4], greater than 37.3 µM; in [5], greater than 34.8 µM; in test [6], greater than 100 µM. Further, the GI50 is greater than 48.3 µM in test [8], greater than 50.2 µM in test [9] and greater than 100 µM in test [10]. In addition, the TGI was greater than 42.3 µM in test [1]; greater than 65.7 µM in test [2]; greater than 100 µM in test [3]; greater than 54.7 µM in test [4]; greater than 86.7 µM in test [5]; greater than 100 µM in test [6]. Moreover, the TGI was greater than 24 µM in [7], greater than 68.7 µM in [8], greater than 79.4 µM in test [9] and greater than 100 µM in [10].

As to `COc1cc(N2CCC(N(C)C)CC2)ccc1Nc1ncc(Cl)c(Nc2ccccc2P(C)(C)=O)n1`, the GI50 is 0.483 µM and 0.115 µM in test [1]; 2.23 µM and 0.503 µM in [2]; 0.261 µM and 0.0794 µM in test [3]; 2.77 µM and 0.926 µM in [4]; 1.42 µM and 0.713 µM in [5]; 1.33 µM and 0.338 µM in [6]. The GI50 in test [7] was 3.85 µM and 2.05 µM; in test [8], 1.14 µM and 0.728 µM; in test [9], 0.384 µM and 0.232 µM; in test [10], 0.128 µM and 0.086 µM. Also, the TGI in test [1] is 6.08 µM and 3.32 µM; in [2], 15.3 µM and > 4.88 µM; in test [3] it was 2.99 µM and 0.785 µM; in test [4], 23.4 µM and > 10 µM; in test [5], 9.94 µM and > 10 µM; in test [6], 17.1 µM and > 4.62 µM. Moreover, the TGI in test [7] is 21.7 µM and > 7.1 µM; in test [8] it was 4.16 µM and 2.99 µM; in test [9] it was 4.72 µM and > 10 µM; in test [10], 0.476 µM and 0.53 µM.

Consider `COc1ncnc2c(NC3OC(CO)C(O)C3O)ncnc12` (stereo not given), for which the TGI is greater than 100 µM in [1]; 21.9 µM in [2]; greater than 32 µM in [3]; 5.29 µM in [4]; greater than 100 µM in [5]; 13.5 µM in test [6]. The TGI in [7] was 3.08 µM; in [8], greater than 100 µM; in test [9], 18 µM; in test [10] it was 1.58 µM.

`CCc1ccccc1NC(=O)CCc1nc(=S)[nH][nH]1`: the TGI in test [1], in test [2], in [3], in test [4], in test [5] and in [6] was greater than 100 µM each time. The TGI in [7], in [8], in [9] and in test [10] was greater than 100 µM throughout.

For the compound `CCCCCCC(C)CC(CCCCCC)NCCOC(=O)c1ccc([N+](=O)[O-])cc1` (stereo not given), the TGI in test [1] was 28.4 µM and 26.2 µM; in [2], 28.4 µM and 17.7 µM; in test [3] it was 21.4 µM and 19 µM; in test [4], 22.1 µM and 19.7 µM; in [5], 29.2 µM and 25.2 µM; in test [6], 38.9 µM and 34.5 µM. For the same compound, the TGI in test [7] was 24 µM and 30.2 µM; in test [8], 30.7 µM and 28.6 µM; in test [9], 33.7 µM and 30.7 µM; in test [10], 34 µM and 34.8 µM. Besides, the GI50 in [2] is 12.4 µM and 4.53 µM.
